Numbered stars: 1 amine (or outer) side, 2 acyl side, 3 side chain; on linkers, the order of the positions; unused ones are H or OH. Bridge positions count the residues as written; N and C are the ends. Square brackets hold non-standard residues; d marks the D form. Peptide text beside a SMILES is read from it. * marks the point of attachment. Phe(3-CF3) = N[C@@H](Cc1cccc(C(F)(F)F)c1)C(=O)O; Phe(4-COOH) = N[C@@H](Cc1ccc(C(=O)O)cc1)C(=O)O; Bip = N[C@@H](Cc1ccc(-c2ccccc2)cc1)C(=O)O; NH(CH2)14COOH = O=C(O)CCCCCCCCCCCCCCN*; Phe(3-Me) = Cc1cccc(C[C@H](N)C(=O)O)c1; γGlu = O=C(O)[C@H](CCC(=O)[*:2])N[*:1]; NH(CH2)12COOH = O=C(O)CCCCCCCCCCCCN*; Val(3-OH) = CC(C)(O)[C@H](N)C(=O)O; Cha = N[C@@H](CC1CCCCC1)C(=O)O; aThr = C[C@H](O)[C@H](N)C(=O)O; Dap(Me) = CNC[C@H](N)C(=O)O; dDab = NCC[C@@H](N)C(=O)O; Carboxymethyl = O=C(O)C*; Nle = CCCC[C@H](N)C(=O)O; Orn = NCCC[C@H](N)C(=O)O; Dab = NCC[C@H](N)C(=O)O; AEEA = NCCOCCOCC(=O)O

T1 sequence (Q15116 25-288): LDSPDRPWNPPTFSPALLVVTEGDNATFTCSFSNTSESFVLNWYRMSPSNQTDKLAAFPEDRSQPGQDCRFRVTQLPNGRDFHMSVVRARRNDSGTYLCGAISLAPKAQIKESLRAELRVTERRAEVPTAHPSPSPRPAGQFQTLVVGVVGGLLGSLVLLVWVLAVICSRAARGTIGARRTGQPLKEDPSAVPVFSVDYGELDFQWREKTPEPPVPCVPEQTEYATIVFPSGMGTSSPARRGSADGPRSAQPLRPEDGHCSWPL

This experiment has as its target T1, PD-1/PD-L1 interaction (PE-labeled human PD-L1-Ig binding to Jurkat cell line over-expressing human PD-1) (Homo sapiens, UniProt Q15116).
T1 construct: expressed in transfected cells; host or cells: Jurkat
In words: Jurkat-PD-1 Cell Binding High-Content Screening Assay (CBA). It is filed as cell-based. Particulars: Jurkat cell line over-expressing human PD-1; PE-labeled PD-L1-Ig 20 nM final; read-out: Jurkat hPD1-PDL1 IC50. An outline of the steps:
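Jurkat cells stably over-expressing human PD-1 were seeded in DMEM with 10% fetal calf serum and pre-incubated with compound for 2 h at 37° C. PE-labeled human PD-L1-Ig was then added at 20 nM final for 1 hour, after which cells were fixed with paraformaldehyde, Hoechst-stained and imaged by high-content microscopy.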
On to `CCCC[C@@H]1NC(=O)CSC[C@@H](C(=O)N[C@@H](CCN)C(=O)NCCOCCOCC(=O)N[C@@H](CO)C(=O)N[C@H](CCC(=O)NCCCCCCCCCCCCCCC(=O)O)C(=O)O)NC(=O)[C@H](CC(=O)O)NC(=O)[C@H](C(C)(C)O)NC(=O)[C@H](CC2CCCCC2)NC(=O)[C@H](CCN)NC(=O)[C@@H](CC(C)C)NC(=O)[C@H](CCCN)NC(=O)[C@H](Cc2ccc(OCC(=O)O)cc2)NC(=O)[C@H](Cc2ccc(-c3ccccc3)cc2)NC(=O)[C@H](Cc2ccc(C(=O)O)cc2)NC(=O)[C@H](Cc2cccc(C)c2)NC(=O)[C@H](CC(=O)O)NC(=O)[C@H](Cc2ccc(OCC(=O)O)cc2)NC1=O` [Compound 3893] ({CH2CO}-[Nle]Y(Carboxymethyl)D[Phe(3-Me)][Phe(4-COOH)][Bip]Y(Carboxymethyl)[Orn][dL][Dab][Cha][Val(3-OH)]DC[Dab][AEEA]S[dE](NH(CH2)14COOH)-OH; thioether N-14), for which the IC50 – broadly, the point on the concentration scale where inhibition reaches its midpoint – came out at 369 nM.

Take `CCCC[C@@H]1NC(=O)CSC[C@@H](C(=O)N[C@@H](CCN)C(=O)NCCOCCOCC(=O)N[C@@H](CO)C(=O)N[C@H](CCC(=O)NCCCCCCCCCCCCCCC(=O)O)C(=O)O)NC(=O)[C@H](Cc2cnc[nH]2)NC(=O)[C@H](C(C)(C)O)NC(=O)[C@H](CC2CCCCC2)NC(=O)[C@H](CCN)NC(=O)[C@@H](CC(C)C)NC(=O)[C@H](CCCN)NC(=O)[C@H](Cc2ccc(OCC(=O)O)cc2)NC(=O)[C@H](Cc2ccc(-c3ccccc3)cc2)NC(=O)[C@H](Cc2ccc(C(=O)O)cc2)NC(=O)[C@H](Cc2cccc(C)c2)NC(=O)[C@H](CC(=O)O)NC(=O)[C@H](Cc2ccc(OCC(=O)O)cc2)NC1=O` [Compound 3894] ({CH2CO}-[Nle]Y(Carboxymethyl)D[Phe(3-Me)][Phe(4-COOH)][Bip]Y(Carboxymethyl)[Orn][dL][Dab][Cha][Val(3-OH)]HC[Dab][AEEA]S[dE](NH(CH2)14COOH)-OH; thioether N-14): the IC50 is 106 nM.

`CNC[C@@H]1NC(=O)CSC[C@@H](C(=O)N[C@@H](CCN)C(=O)NCCOCCOCC(=O)N[C@@H](CO)C(=O)NCCCCCCCCCCCCCCC(=O)O)NC(=O)[C@H](CCC(=O)O)NC(=O)[C@H](C(C)C)NC(=O)[C@H](CC2CCCCC2)NC(=O)[C@H](CCN)NC(=O)[C@@H](CC(C)C)NC(=O)[C@H](CCCN)NC(=O)[C@H](Cc2ccc(C(=O)O)cc2)NC(=O)[C@H](Cc2ccc(-c3ccccc3)cc2)NC(=O)[C@H](Cc2ccc(C(=O)O)cc2)NC(=O)[C@H](Cc2cccc(C(F)(F)F)c2)NC(=O)[C@H](CC(=O)O)NC(=O)[C@H](Cc2ccc(OCC(=O)O)cc2)NC1=O` [Compound 3895] ({CH2CO}-[Dap(Me)]Y(Carboxymethyl)D[Phe(3-CF3)][Phe(4-COOH)][Bip][Phe(4-COOH)][Orn][dL][Dab][Cha]VEC[Dab][AEEA]S-{NH(CH2)14COOH}; thioether N-14): the IC50 is 49.4 nM. The figure for `CNC[C@@H]1NC(=O)CSC[C@@H](C(=O)N[C@@H](CCN)C(=O)NCCOCCOCC(=O)NCCCCCCCCCCCCCCC(=O)O)NC(=O)[C@H](CCC(=O)O)NC(=O)[C@H](C(C)C)NC(=O)[C@H](CC2CCCCC2)NC(=O)[C@H](CCN)NC(=O)[C@@H](CC(C)C)NC(=O)[C@H](CCCN)NC(=O)[C@H](Cc2ccc(C(=O)O)cc2)NC(=O)[C@H](Cc2ccc(-c3ccccc3)cc2)NC(=O)[C@H](Cc2ccc(C(=O)O)cc2)NC(=O)[C@H](Cc2cccc(C(F)(F)F)c2)NC(=O)[C@H](CC(=O)O)NC(=O)[C@H](Cc2ccc(C(=O)O)cc2)NC1=O` [Compound 3896] ({CH2CO}-[Dap(Me)][Phe(4-COOH)]D[Phe(3-CF3)][Phe(4-COOH)][Bip][Phe(4-COOH)][Orn][dL][Dab][Cha]VEC[Dab][AEEA]-{NH(CH2)14COOH}; thioether N-14) is 224 nM. The figure for `CCCC[C@@H]1NC(=O)CSC[C@@H](C(=O)N[C@H](CCN)C(=O)NCCOCCOCC(=O)N[C@@H](CCC(=O)NCCOCCOCC(=O)NCCCCCCCCCCCCC(=O)O)C(=O)O)NC(=O)[C@H](CCC(=O)O)NC(=O)[C@H](C(C)C)NC(=O)[C@H](CC2CCCCC2)NC(=O)[C@H](CCN)NC(=O)[C@@H](CC(C)C)NC(=O)[C@H](CCCN)NC(=O)[C@H](Cc2ccc(OCC(=O)O)cc2)NC(=O)[C@H](Cc2ccc(-c3ccccc3)cc2)NC(=O)[C@H](Cc2ccc(C(=O)O)cc2)NC(=O)[C@H](Cc2cccc(C(F)(F)F)c2)NC(=O)[C@H](CC(=O)O)NC(=O)[C@H](Cc2ccc(OCC(=O)O)cc2)NC1=O` [Compound 3897] ({CH2CO}-[Nle]Y(Carboxymethyl)D[Phe(3-CF3)][Phe(4-COOH)][Bip]Y(Carboxymethyl)[Orn][dL][Dab][Cha]VEC[dDab][AEEA][γGlu][AEEA]-{NH(CH2)12COOH}; thioether N-14) is 63.6 nM; for `CC(=O)NCCCC[C@@H]1NC(=O)[C@H](C(C)(C)O)NC(=O)[C@H](CC2CCCCC2)NC(=O)[C@H](CCN)NC(=O)[C@@H](CC(C)C)NC(=O)[C@H](CCCN)NC(=O)[C@H](Cc2ccc(OCC(=O)O)cc2)NC(=O)[C@H](Cc2ccc(-c3ccccc3)cc2)NC(=O)[C@H](Cc2ccc(C(=O)O)cc2)NC(=O)[C@H](Cc2cccc(C(F)(F)F)c2)NC(=O)[C@H](CC(=O)O)NC(=O)[C@H](Cc2ccc(OCC(=O)O)cc2)NC(=O)[C@H]([C@H](C)O)NC(=O)CSC[C@@H](C(=O)N[C@H](CCN)C(=O)NCCOCCOCC(=O)N[C@@H](CCC(=O)NCCOCCOCC(=O)NCCCCCCCCCCCCC(=O)O)C(=O)O)NC1=O` [Compound 3899] ({CH2CO}-[aThr]Y(Carboxymethyl)D[Phe(3-CF3)][Phe(4-COOH)][Bip]Y(Carboxymethyl)[Orn][dL][Dab][Cha][Val(3-OH)]K(Ac)C[dDab][AEEA][γGlu][AEEA]-{NH(CH2)12COOH}; thioether N-14) it is 27.4 nM; for `CC(C)C[C@H]1NC(=O)[C@H](CCCN)NC(=O)[C@H](Cc2ccc(C(=O)O)cc2)NC(=O)[C@H](Cc2ccc(-c3ccccc3)cc2)NC(=O)[C@H](Cc2ccc(C(=O)O)cc2)NC(=O)[C@H](Cc2cccc(C(F)(F)F)c2)NC(=O)[C@H](CC(=O)O)NC(=O)[C@H](Cc2ccc(OCC(=O)O)cc2)NC(=O)[C@H](CO)NC(=O)CSC[C@@H](C(=O)N[C@@H](CCN)C(=O)NCCOCCOCC(=O)N[C@@H](CO)C(=O)N[C@@H](CO)C(=O)N[C@@H](CO)C(=O)N[C@@H](CO)C(=O)N[C@@H](CCC(=O)NCCCCCCCCCCCCCCC(=O)O)C(=O)O)NC(=O)[C@H](CO)NC(=O)[C@H](C(C)(C)O)NC(=O)[C@H](CC2CCCCC2)NC(=O)[C@H](CCN)NC1=O` [Compound 3900] ({CH2CO}-SY(Carboxymethyl)D[Phe(3-CF3)][Phe(4-COOH)][Bip][Phe(4-COOH)][Orn][dL][Dab][Cha][Val(3-OH)]SC[Dab][AEEA]SSSSE(NH(CH2)14COOH)-OH; thioether N-14) it is 185 nM.

(Values after patent US20260022142A1, “MACROCYCLIC IMMUNOMODULATORS” (Bristol-Myers Squibb Company, priority 2022, published 2026).)
